From patent EP0768085A1, “ANTIBACTERIAL AGENT” (DAIICHI PHARMACEUTICAL CO., LTD., priority 1994, dated 1996)
Values after ≈ are worked out from the molar mass of the structure shown.

Tests used:
Format in all cases: cell-based
[1] = tested on: Pasteurella multocida (Kobe-6); assay: Antibacterial activity (IC), agar as in Example 8 (Example 17, Table 50); settings: 18 h, origin pig
Procedure: (§1) The antibacterial action was evaluated by the inhibitory concentration (hereinafter abbreviated as IC) at which propagation of the bacteria cultured at 37°C for 18 hours was inhibited. Inhibition was determined by the turbidity of the medium. The expressions "IC≤100", "≤10", and "≤1" indicate that MIC-equivalent values obtained at the succesive […] dilution of the sample are 100-10 µg/ml, 10-1 µg/ml, and not more than 1 µg/ml, respectively. […] (In the subsequent Examples, the same rule applies correspondingly.) Table 39
(§2) A suitable amount of a sample was dissolved in dimethylsulfoxide (DMSO), after which the resulting solution was diluted with the same amount of sterilized distilled water to prepare a bulk sample of 1,000 µg/ml. Separately, a bacterial liquid for the test (methicillin-resistant Staphylococcus aureus (MRSA) isolated from humans) which had been cultured in Mueller-Hinton broth (product of DIFCO) was prepared and inoculated to a Mueller-Hinton agar (product of DIFCO) containing the sample so that the final inoculation amount of 10^6 CFU/ml was achieved. The final concentrations of the samples were 100, 10, and 1 µg/ml.
(§3) After culturing at 37°C for 18 hours, the antibacterial activity was evaluated in terms of IC in a manner similar to that described in Example 4.
In a manner similar to that described in Example 8, antibacterial activity of the invention compound was determined. The bacterium used for the test was Pasteurella Kobe-6 (origin: pig, Pasteurella multocida).

[2] = tested on: Staphylococcus aureus (209-P); assay: Antibacterial activity (IC), agar as in Example 8 (Example 15, Table 48); settings: 18 h
Procedure: as §1, §2, §3
The bacterium used for the test was Staphylococcus aureus (209-P).

[3] = tested on: Streptococcus aureus (TI-1); assay: Antibacterial activity (IC), agar as in Example 8 (Example 16, Table 49); settings: 18 h
Procedure: as §1, §2, §3
In a manner similar to that described in Example 8, antibacterial activity of the invention compound was determined. The bacterium used for the test was […] aureus (TI-1).

Pasteurella from fish = assay: Antibacterial activity (IC), agar as in Example 8, media with 1.5% NaCl, 25°C (Example 20, Tables 53-55); settings: for MIC: Pasteurella piscicida KP94-02
Procedure: as §1, §2, §3
(§4) In a manner similar to that described in Example 8, antibacterial activity of a variety of ketonitrile derivatives shown in Tables 53-55 was measured. The bacteria used for the test were Enterococcus and Pasteurella from fish. The culture conditions were such that the media contained 1.5% NaCl, and the culture temperature was 25°C.

Enterococcus from fish = assay: as above; settings: for MIC: Enterococcus Seriolicida SE94-002
Procedure: as §1, §2, §3, §4

[4] = tested on: methicillin-resistant Staphylococcus aureus (MRSA) from humans; assay: Antibacterial activity (IC), agar as in Example 8 (Example 19, Table 52); settings: 18 h
Procedure: as §1, §2, §3
In a manner similar to that described in Example 8, antibacterial activity of a variety of ketonitrile derivatives shown in Table 52 was measured. The bacterium used for the test was methicillin-resistant Staphylococcus aureus (MRSA) from humans.

[5] = Enterococcus Seriolicida KG86050
[6] = Enterococcus Seriolicida MS89060
[7] = Enterococcus Seriolicida MS89064
[8] = Enterococcus Seriolicida MS89066
[9] = Enterococcus Seriolicida MS89068
[10] = Enterococcus Seriolicida SE94-001
[11] = Enterococcus Seriolicida SE94-003
[12] = Enterococcus Seriolicida SE94-004
[13] = Enterococcus Seriolicida SE94-005

Compound	MIC [1] [µg/mL]	MIC [2] [µg/mL]	MIC [3] [µg/mL]	MIC (Pasteurella from fish) [µg/mL]	IC (Pasteurella from fish; Pasteurella piscicida KP94-04)	IC (Pasteurella from fish; Pasteurella piscicida KP94-05)	IC (Pasteurella from fish; Pasteurella piscicida KP94-06)	IC (Enterococcus from fish; Enterococcus Seriolicida HI)	IC (Enterococcus from fish; [5])	IC (Enterococcus from fish; [6])	IC (Enterococcus from fish; [7])	IC (Enterococcus from fish; [8])	IC (Enterococcus from fish; [9])	IC (Enterococcus from fish; [10])	MIC (Enterococcus from fish) [µg/mL]	IC (Enterococcus from fish; [11])	IC (Enterococcus from fish; [12])	IC (Enterococcus from fish; [13])	MIC ([4]; MRSA strain 891179) [µg/mL]	MIC ([4]; MRSA strain 891185) [µg/mL]	further results
CC(Oc1cccc(Oc2ccc(Br)cc2F)c1)C(=O)C(C#N)c1cccc(Cl)c1 (stereo not drawn) [Compound No. 110, 4-[3-(4-bromo-2-fluorophenoxy)phenoxy]-2-(3-chlorophenyl)-3-oxopentanonitrile]	10 to 100 (≈ 20.5 to 205 µM)	1 to 10 (≈ 2.05 to 20.5 µM)	1 to 10 (≈ 2.05 to 20.5 µM)	10 to 100 (≈ 20.5 to 205 µM)	≤100 (MIC-equivalent values obtained at the succesive 2-fold dilution of the sample are 100-10 µg/ml)	≤100 (MIC-equivalent values obtained at the succesive 2-fold dilution of the sample are 100-10 µg/ml)	≤100 (MIC-equivalent values obtained at the succesive 2-fold dilution of the sample are 100-10 µg/ml)	≤10 (10-1 µg/ml)	≤10 (10-1 µg/ml)	≤10 (10-1 µg/ml)	≤10 (10-1 µg/ml)	≤10 (10-1 µg/ml)	≤10 (10-1 µg/ml)	≤10 (10-1 µg/ml)	1 to 10 (≈ 2.05 to 20.5 µM)	≤10 (10-1 µg/ml)	≤10 (10-1 µg/ml)	≤10 (10-1 µg/ml)	1 to 10 (≈ 2.05 to 20.5 µM)	1 to 10 (≈ 2.05 to 20.5 µM)	MIC ([4]; MRSA strain 891187): 1 to 10 µg/mL (≈ 2.05 to 20.5 µM); MIC ([4]; MRSA strain 891192): 1 to 10 µg/mL (≈ 2.05 to 20.5 µM); MIC ([4]; MRSA strain 900048): 1 to 10 µg/mL (≈ 2.05 to 20.5 µM); MIC ([4]; MRSA strain 900056): 1 to 10 µg/mL (≈ 2.05 to 20.5 µM)
CC(Oc1cc(Oc2ccc(C(F)(F)F)cc2Cl)cc(Oc2ccc(C(F)(F)F)cc2Cl)c1)C(=O)C(C#N)c1cccc(Br)c1 (stereo not drawn) [compound 211]	1 to 10 (≈ 1.36 to 13.6 µM)	1 to 10 (≈ 1.36 to 13.6 µM)	1 to 10 (≈ 1.36 to 13.6 µM)	10 to 100 (≈ 13.6 to 136 µM)	≤100 (MIC-equivalent values obtained at the succesive 2-fold dilution of the sample are 100-10 µg/ml)	≤100 (MIC-equivalent values obtained at the succesive 2-fold dilution of the sample are 100-10 µg/ml)	≤100 (MIC-equivalent values obtained at the succesive 2-fold dilution of the sample are 100-10 µg/ml)	≤10 (10-1 µg/ml)	≤10 (10-1 µg/ml)	≤10 (10-1 µg/ml)	≤10 (10-1 µg/ml)	≤10 (10-1 µg/ml)	≤10 (10-1 µg/ml)	≤10 (10-1 µg/ml)	1 to 10 (≈ 1.36 to 13.6 µM)	≤10 (10-1 µg/ml)	≤10 (10-1 µg/ml)	≤10 (10-1 µg/ml)	1 to 10 (≈ 1.36 to 13.6 µM)	1 to 10 (≈ 1.36 to 13.6 µM)	MIC ([4]; MRSA strain 891187): 1 to 10 µg/mL (≈ 1.36 to 13.6 µM); MIC ([4]; MRSA strain 891192): 1 to 10 µg/mL (≈ 1.36 to 13.6 µM); MIC ([4]; MRSA strain 900048): 1 to 10 µg/mL (≈ 1.36 to 13.6 µM); MIC ([4]; MRSA strain 900056): 1 to 10 µg/mL (≈ 1.36 to 13.6 µM)
CC(Oc1cc(Oc2ccc(C(F)(F)F)cc2Cl)cc(Oc2ccc(C(F)(F)F)cc2Cl)c1)C(=O)C(C#N)c1ccc(Cl)c(Cl)c1 (stereo not drawn) [compound 210]	10 to 100 (≈ 13.8 to 138 µM)	1 to 10 (≈ 1.38 to 13.8 µM)	1 to 10 (≈ 1.38 to 13.8 µM)	10 to 100 (≈ 13.8 to 138 µM)	≤100 (MIC-equivalent values obtained at the succesive 2-fold dilution of the sample are 100-10 µg/ml)	≤100 (MIC-equivalent values obtained at the succesive 2-fold dilution of the sample are 100-10 µg/ml)	≤100 (MIC-equivalent values obtained at the succesive 2-fold dilution of the sample are 100-10 µg/ml)	≤10 (10-1 µg/ml)	≤10 (10-1 µg/ml)	≤10 (10-1 µg/ml)	≤10 (10-1 µg/ml)	≤10 (10-1 µg/ml)	≤10 (10-1 µg/ml)	≤10 (10-1 µg/ml)	1 to 10 (≈ 1.38 to 13.8 µM)	≤10 (10-1 µg/ml)	≤10 (10-1 µg/ml)	≤10 (10-1 µg/ml)	1 to 10 (≈ 1.38 to 13.8 µM)	1 to 10 (≈ 1.38 to 13.8 µM)	MIC ([4]; MRSA strain 891187): 1 to 10 µg/mL (≈ 1.38 to 13.8 µM); MIC ([4]; MRSA strain 891192): 1 to 10 µg/mL (≈ 1.38 to 13.8 µM); MIC ([4]; MRSA strain 900048): 1 to 10 µg/mL (≈ 1.38 to 13.8 µM); MIC ([4]; MRSA strain 900056): 1 to 10 µg/mL (≈ 1.38 to 13.8 µM)
COc1cc(Oc2ccc(C(F)(F)F)cc2Cl)cc(OC(C)C(=O)C(C#N)c2ccc(Cl)c(Cl)c2)c1 (stereo not drawn) [compound 209]	1 to 10 (≈ 1.79 to 17.9 µM)	1 to 10 (≈ 1.79 to 17.9 µM)	1 to 10 (≈ 1.79 to 17.9 µM)	10 to 100 (≈ 17.9 to 179 µM)	≤100 (MIC-equivalent values obtained at the succesive 2-fold dilution of the sample are 100-10 µg/ml)	≤100 (MIC-equivalent values obtained at the succesive 2-fold dilution of the sample are 100-10 µg/ml)	≤100 (MIC-equivalent values obtained at the succesive 2-fold dilution of the sample are 100-10 µg/ml)	≤10 (10-1 µg/ml)	≤10 (10-1 µg/ml)	≤10 (10-1 µg/ml)	≤10 (10-1 µg/ml)	≤10 (10-1 µg/ml)	≤10 (10-1 µg/ml)	≤10 (10-1 µg/ml)	1 to 10 (≈ 1.79 to 17.9 µM)	≤10 (10-1 µg/ml)	≤10 (10-1 µg/ml)	≤10 (10-1 µg/ml)	1 to 10 (≈ 1.79 to 17.9 µM)	1 to 10 (≈ 1.79 to 17.9 µM)	MIC ([4]; MRSA strain 891187): 1 to 10 µg/mL (≈ 1.79 to 17.9 µM); MIC ([4]; MRSA strain 891192): 1 to 10 µg/mL (≈ 1.79 to 17.9 µM); MIC ([4]; MRSA strain 900048): 1 to 10 µg/mL (≈ 1.79 to 17.9 µM); MIC ([4]; MRSA strain 900056): 1 to 10 µg/mL (≈ 1.79 to 17.9 µM)
CC(Oc1cccc(Oc2ccc(C(F)(F)F)cc2Cl)c1)C(=O)C(C#N)c1cccc(C(F)(F)F)c1 (stereo not drawn) [Compound No. 106, 4-[3-(2-chloro-4-trifluoromethylphenoxy)phenoxy]-3-oxo-2-(3-trifluoromethylphenyl)pentanonitrile]	10 to 100 (≈ 18.9 to 189 µM)	1 to 10 (≈ 1.89 to 18.9 µM)	1 to 10 (≈ 1.89 to 18.9 µM)	10 to 100 (≈ 18.9 to 189 µM)	≤100 (MIC-equivalent values obtained at the succesive 2-fold dilution of the sample are 100-10 µg/ml)	≤100 (MIC-equivalent values obtained at the succesive 2-fold dilution of the sample are 100-10 µg/ml)	≤100 (MIC-equivalent values obtained at the succesive 2-fold dilution of the sample are 100-10 µg/ml)	≤10 (10-1 µg/ml)	≤10 (10-1 µg/ml)	≤10 (10-1 µg/ml)	≤10 (10-1 µg/ml)	≤10 (10-1 µg/ml)	≤10 (10-1 µg/ml)	≤10 (10-1 µg/ml)	1 to 10 (≈ 1.89 to 18.9 µM)	≤10 (10-1 µg/ml)	≤10 (10-1 µg/ml)	≤10 (10-1 µg/ml)	–	–	–
